Assay results as given in the NIST ThermoML archive (doi:10.1016/j.jct.2014.01.012).
Numbers after ± are expanded uncertainties.

Experiment: refractive index (Na D-line) (dimensionless); xn = mol fraction of the nth substance listed
Conditions: 101 kPa, Liquid

CCCCCCCC[n+]1ccn(C)c1.F[P-](F)(F)(F)(F)F [1-octyl-3-methylimidazolium hexafluorophosphate] + CCCCOC(C)=O
refractive index
Conditions	x1 = 0.1078	x1 = 0.2016	x1 = 0.3056	x1 = 0.3855	x1 = 0.4815	x1 = 0.5918	x1 = 0.6857	x1 = 0.7784	x1 = 0.8946	x1 = 1
293.15 K	1.40113 ± 0.0016	1.40658 ± 0.0016	1.41215 ± 0.0016	1.41536 ± 0.0016	1.41829 ± 0.0016	1.42036 ± 0.0016	1.42188 ± 0.0017	1.42339 ± 0.0017	1.42502 ± 0.0017	1.42649 ± 0.0017
298.15 K	1.39916 ± 0.0016	1.40486 ± 0.0016	1.41053 ± 0.0016	1.41402 ± 0.0016	1.41692 ± 0.0016	1.41924 ± 0.0016	1.42067 ± 0.0017	1.42219 ± 0.0017	1.42373 ± 0.0017	1.42512 ± 0.0017
303.15 K	1.39682 ± 0.0016	1.40307 ± 0.0016	1.40886 ± 0.0016	1.41241 ± 0.0016	1.41546 ± 0.0016	1.41801 ± 0.0016	1.41931 ± 0.0017	1.42073 ± 0.0017	1.42217 ± 0.0017	1.42376 ± 0.0017
308.15 K	1.39502 ± 0.0016	1.40132 ± 0.0016	1.40721 ± 0.0016	1.41099 ± 0.0016	1.41402 ± 0.0016	1.41668 ± 0.0016	1.41801 ± 0.0017	1.41955 ± 0.0017	1.42089 ± 0.0017	1.4224 ± 0.0017
313.15 K	1.39308 ± 0.0016	1.39963 ± 0.0016	1.40556 ± 0.0016	1.40944 ± 0.0016	1.41256 ± 0.0016	1.41529 ± 0.0016	1.41687 ± 0.0017	1.41835 ± 0.0017	1.41966 ± 0.0017	1.42103 ± 0.0017
318.15 K	1.39114 ± 0.0016	1.39793 ± 0.0016	1.40399 ± 0.0016	1.40796 ± 0.0016	1.41132 ± 0.0016	1.41404 ± 0.0016	1.41575 ± 0.0017	1.41726 ± 0.0017	1.41848 ± 0.0017	1.41967 ± 0.0017
323.15 K	1.38914 ± 0.0016	1.39622 ± 0.0016	1.40245 ± 0.0016	1.40652 ± 0.0016	1.41001 ± 0.0016	1.41272 ± 0.0016	1.41456 ± 0.0017	1.41606 ± 0.0017	1.41731 ± 0.0017	1.41831 ± 0.0017

CCCCCCCC[n+]1ccn(C)c1.F[P-](F)(F)(F)(F)F [1-octyl-3-methylimidazolium hexafluorophosphate] + CCOC(C)=O
refractive index
Conditions	x1 = 0.1056	x1 = 0.2064	x1 = 0.308	x1 = 0.4094	x1 = 0.4991	x1 = 0.5916	x1 = 0.694	x1 = 0.8121	x1 = 0.8895	x1 = 1
293.15 K	1.38873 ± 0.0016	1.40004 ± 0.0016	1.40816 ± 0.0016	1.41301 ± 0.0016	1.41629 ± 0.0016	1.41842 ± 0.0016	1.4208 ± 0.0017	1.42285 ± 0.0017	1.42447 ± 0.0017	1.42649 ± 0.0017
298.15 K	1.38754 ± 0.0016	1.39899 ± 0.0016	1.40705 ± 0.0016	1.41196 ± 0.0016	1.41523 ± 0.0016	1.41771 ± 0.0016	1.41971 ± 0.0017	1.42189 ± 0.0017	1.42354 ± 0.0017	1.42512 ± 0.0017
303.15 K	1.38545 ± 0.0016	1.39759 ± 0.0016	1.40552 ± 0.0016	1.41088 ± 0.0016	1.41385 ± 0.0016	1.41655 ± 0.0016	1.41878 ± 0.0017	1.42063 ± 0.0017	1.42188 ± 0.0017	1.42376 ± 0.0017
308.15 K	1.38383 ± 0.0016	1.39634 ± 0.0016	1.40439 ± 0.0016	1.40952 ± 0.0016	1.41311 ± 0.0016	1.41557 ± 0.0016	1.41792 ± 0.0017	1.42016 ± 0.0017	1.42072 ± 0.0017	1.4224 ± 0.0017
313.15 K	1.38267 ± 0.0016	1.39498 ± 0.0016	1.40318 ± 0.0016	1.40842 ± 0.0016	1.41186 ± 0.0016	1.41447 ± 0.0016	1.41699 ± 0.0017	1.41906 ± 0.0017	1.41956 ± 0.0017	1.42103 ± 0.0017
318.15 K	1.38145 ± 0.0016	1.39381 ± 0.0016	1.40208 ± 0.0016	1.40767 ± 0.0016	1.41108 ± 0.0016	1.41348 ± 0.0016	1.41612 ± 0.0017	1.41805 ± 0.0017	1.41852 ± 0.0017	1.41967 ± 0.0017
323.15 K	1.38027 ± 0.0016	1.39276 ± 0.0016	1.40106 ± 0.0016	1.40658 ± 0.0016	1.41002 ± 0.0016	1.41266 ± 0.0016	1.41504 ± 0.0017	1.41746 ± 0.0017	1.41744 ± 0.0017	1.41831 ± 0.0017
